Results: patent US10287268B2, “Imidazolyl kinase inhibitors and uses thereof” (Dana-Farber Cancer Institute, Inc., priority 2014, dated 2019)

Columns and labels:
Type in all cases: biochemical
[1] = molecular target: T1, BTK (Homo sapiens (Human), UniProt Q06187); test: Protein kinase IC50 determination (method developed by Invitrogen Technology); settings: concentration of ATP: Km for ATP
Description: (§1) In some experiments, inhibitory activities of the compounds described herein against select protein kinases were determined as IC50 values (e.g., IC50 values in Table 3) using methods known in the art (e.g., the method developed by Invitrogen Technology).

[2] = molecular target: HCK (Homo sapiens (Human), UniProt P08631); test: as above; settings: concentration of ATP: Km for ATP
Chain of HCK (P08631 whole entry): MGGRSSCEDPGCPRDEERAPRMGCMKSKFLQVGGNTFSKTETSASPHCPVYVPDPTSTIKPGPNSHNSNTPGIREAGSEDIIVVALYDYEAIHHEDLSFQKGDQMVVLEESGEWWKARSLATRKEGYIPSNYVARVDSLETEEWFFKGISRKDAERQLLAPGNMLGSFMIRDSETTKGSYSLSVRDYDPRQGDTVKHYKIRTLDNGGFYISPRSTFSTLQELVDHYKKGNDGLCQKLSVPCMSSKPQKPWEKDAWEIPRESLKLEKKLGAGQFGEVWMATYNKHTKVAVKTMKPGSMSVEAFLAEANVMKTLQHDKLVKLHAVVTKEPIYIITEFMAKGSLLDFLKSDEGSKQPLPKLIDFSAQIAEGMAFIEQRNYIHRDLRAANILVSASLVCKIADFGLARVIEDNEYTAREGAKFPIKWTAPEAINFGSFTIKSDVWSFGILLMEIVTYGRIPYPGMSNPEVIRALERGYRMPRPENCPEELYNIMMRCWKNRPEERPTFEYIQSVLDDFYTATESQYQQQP
Description: as §1

[3] = molecular target: ABL (Homo sapiens (Human), UniProt P00519); test: Radiometric [γ-32P]ATP protein kinase assay (Hastie et al.), % activity vs DMSO control; settings: read-out: Activity of the protein kinase when treated with compound I-1 (% control)
Description: (§2) In another set of experiments, the activities of the compounds described herein against various protein kinases were determined according to the methods reported in Hastie et al., Nature Protocols, 2006, 1, 968-971.
(§3) This buffer consisted of 50 mM Tris-HCl, pH 7.5, 0.1 mM EGTA, 1 mg ml^−1 bovine serum albumin and 0.1% (vol/vol) 2-mercaptoethanol.
(§4) An assay buffer of 500 mM Tris-HCl, pH 7.5, 1 mM EGTA, and 100 mM magnesium acetate was used for assay of a wide variety of protein kinases. In some experiments, other cofactors were included (e.g., calcium ions and calmodulin were included for assay of calcium-calmodulin-dependent protein kinases).
(§5) The specific activity of the [γ-^32P] ATP solution was 1×10^5 to 1×10^6 c.p.m. per nmol depending on what was needed to produce an optimal signal/noise ratio. Stocks of nonradioactive (“cold”) ATP were dissolved in 10 mM HEPES, and the pH of the resulting stock solutions was adjusted to 7.4. To measure the concentration of ATP, a sample of such a stock solution was diluted to 20 μM, and the absorbance of the diluted sample was measured at 259 nm. The absorbance of a 20 μM stock solution of ATP at 259 nm was about 0.31. The 1-mM solution of cold ATP was “spiked” with [γ-^32P] ATP to produce a radioactivity of 1×10^5 to 1×10^6 c.p.m. per nmol.
(§6) 1) The number of assay samples needed was determined based on, e.g., the following considerations: (i) each condition was assayed in duplicate; (ii) two controls containing peptide or protein substrate and ATP but no protein kinase were included to assess contamination by any free ATP not incorporated into substrate, alongside two controls lacking a peptide or protein substrate but containing ATP and protein kinase to correct for any incorporation of phosphate into the kinase itself (e.g., autophosphorylation); and (iii) a maximum of 40 samples were assayed manually at one time by a single person. Microcentrifuge tubes were label distinctly and were placed on ice.
(§7) 2) Suspend a wire mesh basket in a beaker containing a magnetic stir bar and not less than 5 ml of 75 mM phosphoric acid per assay sample or a minimum volume of 100 ml. Place this on a magnetic stirrer behind a plexiglass shield.
(§8) 3) Label 2 cm×2 cm squares of phosphocellulose paper corresponding to the samples to be pipetted into each microcentrifuge tube. Label the phosphocellulose paper using pencil, which was not affected by the solvents used to wash the papers at the end of the assay.
(§9) 4) Dilute the protein kinase in enzyme dilution buffer and place on ice.
(§10) 5) Pipette 5 μl of 10× concentrated assay buffer, 5 μl peptide or protein substrate (the two “no-substrate” control tubes had 5 μl water added instead of peptide or protein substrate), and 30 μl distilled water into each tube. Keep the tubes on ice.
(§11) 6) Add 5 μl diluted protein kinase to each tube, except for the two “no-enzyme” control tubes, which had 5 μl enzyme dilution buffer added, and still keeping the tubes on ice. In some cases, premixed “cocktails” of assay components were prepared containing peptide or protein substrate, assay buffer, and distilled water to limit the number of additions to each assay tube.
(§12) 7) Insert each tube into the water bath at intervals of 15 s to allow the assay mixture to reach 30° C. Begin the protein kinase reactions by adding 5 μl of 1 mM [γ-^32P]ATP to each tube at intervals of 15 s. Close each tube, vortex for 1 s to mix the contents and immediately replace in a rack in the water bath. Incubate for 10 min at 30° C.
(§13) 8) At 10 min after the addition of ATP, remove each tube from the water bath at intervals of 15 s.
(§14) 9) “Spot” […] of each reaction mixture onto the center of a 2-cm square of P81 phosphocellulose paper using forceps to handle the paper squares. Immediately immerse the paper into the 75 mM phosphoric acid contained in the wire mesh basket suspended in the beaker that is being stirred continuously with a magnetic stirrer. This was be done within 1 to 2 s, as this step terminated the reaction. […]

[4] = molecular target: BRK (Homo sapiens (Human), UniProt Q13882); test: as above; settings: read-out: Activity of the protein kinase when treated with compound I-1 (% control)
Chain of BRK (Q13882 whole entry): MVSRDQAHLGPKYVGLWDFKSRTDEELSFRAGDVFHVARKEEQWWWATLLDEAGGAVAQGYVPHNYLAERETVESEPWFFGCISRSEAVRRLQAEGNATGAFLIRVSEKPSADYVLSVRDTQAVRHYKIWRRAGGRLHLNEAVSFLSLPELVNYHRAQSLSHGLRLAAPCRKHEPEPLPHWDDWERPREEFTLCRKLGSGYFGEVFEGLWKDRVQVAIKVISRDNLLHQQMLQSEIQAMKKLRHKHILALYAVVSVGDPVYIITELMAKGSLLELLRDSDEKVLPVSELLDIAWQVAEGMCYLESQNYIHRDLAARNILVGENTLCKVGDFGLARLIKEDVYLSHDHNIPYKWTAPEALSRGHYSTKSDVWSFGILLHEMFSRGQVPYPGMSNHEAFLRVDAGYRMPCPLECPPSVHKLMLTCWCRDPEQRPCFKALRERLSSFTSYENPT
Description: as §2, §3, §4, §5, §6, §7, §8, §9, §10, §11, §12, §13, §14

[5] = molecular target: T1, BTK; test: as above; settings: read-out: Activity of the protein kinase when treated with compound I-1 (% control)
Description: as §2, §3, §4, §5, §6, §7, §8, §9, §10, §11, §12, §13, §14

[6] = molecular target: CSK (Homo sapiens (Human), UniProt P41240); test: as above; settings: read-out: Activity of the protein kinase when treated with compound I-1 (% control)
Description: as §2, §3, §4, §5, §6, §7, §8, §9, §10, §11, §12, §13, §14

[7] = molecular target: DDR2 (Homo sapiens (Human), UniProt Q16832); test: as above; settings: read-out: Activity of the protein kinase when treated with compound I-1 (% control)
Description: as §2, §3, §4, §5, §6, §7, §8, §9, §10, §11, §12, §13, §14

[8] = molecular target: EPH-A2 (Homo sapiens (Human), UniProt P29317); test: as above; settings: read-out: Activity of the protein kinase when treated with compound I-1 (% control)
Description: as §2, §3, §4, §5, §6, §7, §8, §9, §10, §11, §12, §13, §14

[9] = molecular target: EPH-B1 (Homo sapiens (Human), UniProt P54762); test: as above; settings: read-out: Activity of the protein kinase when treated with compound I-1 (% control)
Description: as §2, §3, §4, §5, §6, §7, §8, §9, §10, §11, §12, §13, §14

[10] = molecular target: FGF-R1 (Homo sapiens (Human), UniProt P11362); test: as above; settings: read-out: Activity of the protein kinase when treated with compound I-1 (% control)
Description: as §2, §3, §4, §5, §6, §7, §8, §9, §10, §11, §12, §13, §14

[11] = molecular target: HER4 (Homo sapiens (Human), UniProt Q15303); test: as above; settings: read-out: Activity of the protein kinase when treated with compound I-1 (% control)
Chain of HER4 (Q15303 26-1308): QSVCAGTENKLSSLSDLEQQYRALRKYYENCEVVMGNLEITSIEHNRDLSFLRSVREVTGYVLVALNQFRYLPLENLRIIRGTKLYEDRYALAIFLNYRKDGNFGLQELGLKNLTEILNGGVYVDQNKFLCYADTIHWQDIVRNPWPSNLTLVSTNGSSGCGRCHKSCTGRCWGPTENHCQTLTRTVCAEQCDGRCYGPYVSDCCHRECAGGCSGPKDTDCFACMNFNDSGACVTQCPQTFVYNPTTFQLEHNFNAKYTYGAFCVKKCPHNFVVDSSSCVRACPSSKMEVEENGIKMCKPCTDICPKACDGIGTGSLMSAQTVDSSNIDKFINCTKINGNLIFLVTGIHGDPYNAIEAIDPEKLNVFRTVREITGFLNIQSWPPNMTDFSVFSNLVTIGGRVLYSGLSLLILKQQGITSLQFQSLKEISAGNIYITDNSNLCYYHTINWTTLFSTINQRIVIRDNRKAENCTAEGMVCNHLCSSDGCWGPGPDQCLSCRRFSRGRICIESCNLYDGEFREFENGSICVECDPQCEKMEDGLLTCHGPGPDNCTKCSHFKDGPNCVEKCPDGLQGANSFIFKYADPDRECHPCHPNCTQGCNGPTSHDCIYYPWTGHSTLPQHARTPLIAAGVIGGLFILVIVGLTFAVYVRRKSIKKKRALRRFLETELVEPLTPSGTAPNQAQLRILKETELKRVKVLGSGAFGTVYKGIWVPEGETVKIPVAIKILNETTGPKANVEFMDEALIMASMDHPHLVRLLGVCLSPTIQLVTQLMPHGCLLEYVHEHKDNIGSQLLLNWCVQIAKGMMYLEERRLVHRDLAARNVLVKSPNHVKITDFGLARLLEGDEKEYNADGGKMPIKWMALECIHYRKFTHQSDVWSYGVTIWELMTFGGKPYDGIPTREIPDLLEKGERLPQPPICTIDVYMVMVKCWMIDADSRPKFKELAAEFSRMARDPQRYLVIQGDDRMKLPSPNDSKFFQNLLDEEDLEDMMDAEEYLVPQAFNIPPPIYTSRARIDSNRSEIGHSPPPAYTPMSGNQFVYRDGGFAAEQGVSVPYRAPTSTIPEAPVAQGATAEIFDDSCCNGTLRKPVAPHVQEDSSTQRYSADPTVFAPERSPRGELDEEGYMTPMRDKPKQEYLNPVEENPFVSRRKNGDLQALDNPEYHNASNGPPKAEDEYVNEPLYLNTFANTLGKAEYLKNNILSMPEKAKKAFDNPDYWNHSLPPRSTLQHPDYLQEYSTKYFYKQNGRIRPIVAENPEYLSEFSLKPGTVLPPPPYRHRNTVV
Description: as §2, §3, §4, §5, §6, §7, §8, §9, §10, §11, §12, §13, §14

[12] = molecular target: Lck (Homo sapiens (Human), UniProt P06239); test: as above; settings: read-out: Activity of the protein kinase when treated with compound I-1 (% control)
Chain of Lck (P06239 whole entry): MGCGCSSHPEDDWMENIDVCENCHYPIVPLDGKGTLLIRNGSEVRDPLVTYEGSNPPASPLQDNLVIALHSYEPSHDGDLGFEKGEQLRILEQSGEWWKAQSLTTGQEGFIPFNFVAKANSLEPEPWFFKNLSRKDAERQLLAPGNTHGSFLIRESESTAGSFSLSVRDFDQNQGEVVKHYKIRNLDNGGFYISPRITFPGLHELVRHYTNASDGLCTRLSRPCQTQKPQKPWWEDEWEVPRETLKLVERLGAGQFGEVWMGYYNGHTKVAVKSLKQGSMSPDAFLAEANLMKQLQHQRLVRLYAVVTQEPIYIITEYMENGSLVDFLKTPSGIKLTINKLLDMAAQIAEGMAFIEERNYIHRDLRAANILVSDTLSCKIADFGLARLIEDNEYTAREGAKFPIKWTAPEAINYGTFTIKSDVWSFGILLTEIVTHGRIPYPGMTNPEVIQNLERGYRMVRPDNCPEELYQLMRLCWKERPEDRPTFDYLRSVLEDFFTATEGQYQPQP
Description: as §2, §3, §4, §5, §6, §7, §8, §9, §10, §11, §12, §13, §14

[13] = molecular target: Src (Homo sapiens (Human), UniProt P12931); test: as above; settings: read-out: Activity of the protein kinase when treated with compound I-1 (% control)
Description: as §2, §3, §4, §5, §6, §7, §8, §9, §10, §11, §12, §13, §14

[14] = molecular target: TIE2 (Homo sapiens (Human), UniProt Q02763); test: as above; settings: read-out: Activity of the protein kinase when treated with compound I-1 (% control)
Chain of TIE2 (Q02763 23-1124): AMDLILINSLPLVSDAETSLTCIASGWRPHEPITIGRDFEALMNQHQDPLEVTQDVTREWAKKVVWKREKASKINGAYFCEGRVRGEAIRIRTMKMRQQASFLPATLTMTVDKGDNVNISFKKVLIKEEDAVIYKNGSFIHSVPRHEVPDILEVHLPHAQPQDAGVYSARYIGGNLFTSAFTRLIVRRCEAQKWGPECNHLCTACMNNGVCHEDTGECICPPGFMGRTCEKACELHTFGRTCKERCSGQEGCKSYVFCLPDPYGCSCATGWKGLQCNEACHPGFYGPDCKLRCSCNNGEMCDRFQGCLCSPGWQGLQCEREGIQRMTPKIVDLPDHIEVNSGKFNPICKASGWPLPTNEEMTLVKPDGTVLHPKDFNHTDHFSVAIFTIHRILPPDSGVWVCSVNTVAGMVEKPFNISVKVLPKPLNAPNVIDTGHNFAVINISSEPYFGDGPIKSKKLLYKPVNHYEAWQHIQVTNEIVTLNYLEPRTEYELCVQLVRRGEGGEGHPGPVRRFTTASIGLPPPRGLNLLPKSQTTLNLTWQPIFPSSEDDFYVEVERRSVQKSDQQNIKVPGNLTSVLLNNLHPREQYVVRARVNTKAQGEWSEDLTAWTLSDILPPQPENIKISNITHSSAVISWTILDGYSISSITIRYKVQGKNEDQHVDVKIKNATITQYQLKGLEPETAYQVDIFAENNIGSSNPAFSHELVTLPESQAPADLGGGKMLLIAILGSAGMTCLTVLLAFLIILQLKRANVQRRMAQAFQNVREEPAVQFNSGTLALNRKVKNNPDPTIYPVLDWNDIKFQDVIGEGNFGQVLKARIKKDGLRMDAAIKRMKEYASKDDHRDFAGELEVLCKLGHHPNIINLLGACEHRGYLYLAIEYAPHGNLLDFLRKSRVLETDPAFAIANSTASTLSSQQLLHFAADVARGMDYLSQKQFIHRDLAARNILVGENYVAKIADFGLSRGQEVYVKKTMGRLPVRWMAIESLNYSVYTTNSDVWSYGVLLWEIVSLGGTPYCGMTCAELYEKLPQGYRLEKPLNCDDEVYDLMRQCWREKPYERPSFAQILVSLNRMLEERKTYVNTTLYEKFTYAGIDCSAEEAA
Description: as §2, §3, §4, §5, §6, §7, §8, §9, §10, §11, §12, §13, §14

[15] = system: VEG-FR; test: as above
Description: as §2, §3, §4, §5, §6, §7, §8, §9, §10, §11, §12, §13, §14

[16] = molecular target: YES1 (Homo sapiens (Human), UniProt P07947); test: as above; settings: read-out: Activity of the protein kinase when treated with compound I-1 (% control)
Chain of YES1 (P07947 whole entry): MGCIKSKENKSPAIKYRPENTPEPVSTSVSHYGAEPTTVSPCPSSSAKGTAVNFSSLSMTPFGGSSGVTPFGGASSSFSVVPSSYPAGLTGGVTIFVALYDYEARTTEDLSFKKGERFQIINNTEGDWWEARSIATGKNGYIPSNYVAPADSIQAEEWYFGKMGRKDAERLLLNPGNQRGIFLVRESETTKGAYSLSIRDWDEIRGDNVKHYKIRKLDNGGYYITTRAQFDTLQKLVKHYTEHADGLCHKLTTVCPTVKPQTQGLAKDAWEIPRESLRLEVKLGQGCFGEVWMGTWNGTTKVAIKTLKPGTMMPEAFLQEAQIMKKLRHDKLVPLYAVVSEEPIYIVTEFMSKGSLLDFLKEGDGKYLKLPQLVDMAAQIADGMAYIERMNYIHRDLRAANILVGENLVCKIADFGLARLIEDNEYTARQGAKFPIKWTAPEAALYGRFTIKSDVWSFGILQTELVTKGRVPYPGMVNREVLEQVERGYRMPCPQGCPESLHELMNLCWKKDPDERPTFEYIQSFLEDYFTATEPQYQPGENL
Description: as §2, §3, §4, §5, §6, §7, §8, §9, §10, §11, §12, §13, §14

[17] = molecular target: p38a MAPK (Homo sapiens (Human), UniProt Q16539); test: as above; settings: read-out: Activity of the protein kinase when treated with compound I-1 (% control)
Description: as §2, §3, §4, §5, §6, §7, §8, §9, §10, §11, §12, §13, §14

[18] = 0.1 μM of compound I-1, DMSO control = 100%
[19] = 1 μM of compound I-1, DMSO control = 100%

T1 sequence (Q06187 whole entry): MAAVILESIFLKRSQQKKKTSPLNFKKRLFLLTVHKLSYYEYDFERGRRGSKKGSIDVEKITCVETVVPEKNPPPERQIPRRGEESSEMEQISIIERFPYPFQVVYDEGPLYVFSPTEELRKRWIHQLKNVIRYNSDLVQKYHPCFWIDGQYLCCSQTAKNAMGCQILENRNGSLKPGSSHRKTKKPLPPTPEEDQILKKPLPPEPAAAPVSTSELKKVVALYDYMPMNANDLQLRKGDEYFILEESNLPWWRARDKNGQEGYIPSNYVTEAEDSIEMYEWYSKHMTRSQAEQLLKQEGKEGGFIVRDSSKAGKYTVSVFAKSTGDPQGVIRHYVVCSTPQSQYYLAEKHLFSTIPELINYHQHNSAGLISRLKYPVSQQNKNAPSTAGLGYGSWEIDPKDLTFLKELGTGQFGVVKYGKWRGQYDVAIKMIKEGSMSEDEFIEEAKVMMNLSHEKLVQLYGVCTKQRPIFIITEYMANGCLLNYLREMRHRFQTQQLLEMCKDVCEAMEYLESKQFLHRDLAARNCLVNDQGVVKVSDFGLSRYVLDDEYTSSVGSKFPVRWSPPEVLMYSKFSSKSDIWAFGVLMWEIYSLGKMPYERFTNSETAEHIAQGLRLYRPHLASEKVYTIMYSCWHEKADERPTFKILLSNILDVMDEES

Question: Which IC50 [1] does the source give for `COCCOc1ccc(Nc2cc(-n3ccnc3Nc3c(C)cccc3C)ncn2)cc1` [Compound I-3] here?
Answer: 9980 nM

Question: And the IC50 [2]?
Answer: 2420 nM

Question: Which results are given for `COCCOc1ccc(Nc2cc(-n3ccnc3Nc3c(C)cccc3Cl)ncn2)cc1` [Compound I-2]?
Answer: IC50 [1]: 1860 nM; IC50 [2]: 307 nM

Question: Which results are given for `Cc1cccc(Cl)c1Nc1nccn1-c1cc(Nc2cnn(C)c2)ncn1` [Compound I-4]?
Answer: IC50 [1]: > 10000 nM; IC50 [2]: 3000 nM

Question: `CCN1CCN(c2ccc(Nc3cc(-n4ccnc4Nc4c(C)cccc4C)ncn3)cc2)CC1` [Compound I-1, 6-(2-((2,6-Dimethylphenyl)amino)-1H-imidazol-1-yl)-N-(4-(4-ethylpiperazin-1-yl)phenyl)pyrimidin-4-amine] was tested. Which remaining activity at 0.1 µM [3, 18] did it give?
Answer: 84%

Question: And the remaining activity at 1 µM [3, 19]?
Answer: 48%

Question: And the remaining activity at 0.1 µM [4, 18]?
Answer: 74%

Question: And the remaining activity at 1 µM [4, 19]?
Answer: 16%

Question: And the remaining activity at 0.1 µM [5, 18]?
Answer: 85%

Question: And the remaining activity at 1 µM [5, 19]?
Answer: 30%

Question: What about the remaining activity at 0.1 µM [6, 18] of the same molecule?
Answer: 94%

Question: And the remaining activity at 1 µM [6, 19]?
Answer: 67%

Question: What about the remaining activity at 0.1 µM [7, 18] of the same molecule?
Answer: 46%

Question: What about the remaining activity at 1 µM [7, 19] of the same molecule?
Answer: 12%

Question: What about the remaining activity at 0.1 µM [8, 18] of the same molecule?
Answer: 99%

Question: What about the remaining activity at 1 µM [8, 19] of the same molecule?
Answer: 59%

Question: And the remaining activity at 0.1 µM [9, 18]?
Answer: 86%

Question: And the remaining activity at 1 µM [9, 19]?
Answer: 16%

Question: What about the remaining activity at 0.1 µM [10, 18] of the same molecule?
Answer: 67%

Question: What about the remaining activity at 1 µM [10, 19] of the same molecule?
Answer: 30%

Question: What about the remaining activity at 0.1 µM [11, 18] of the same molecule?
Answer: 97%

Question: What about the remaining activity at 1 µM [11, 19] of the same molecule?
Answer: 76%

Question: What about the remaining activity at 0.1 µM [12, 18] of the same molecule?
Answer: 24%

Question: What about the remaining activity at 1 µM [12, 19] of the same molecule?
Answer: 13%

Question: What about the remaining activity at 0.1 µM [13, 18] of the same molecule?
Answer: 43%

Question: And the remaining activity at 1 µM [13, 19]?
Answer: 13%

Question: What about the remaining activity at 0.1 µM [14, 18] of the same molecule?
Answer: 82%

Question: What about the remaining activity at 1 µM [14, 19] of the same molecule?
Answer: 85%

Question: And the “Activity of the protein kinase when treated with compound I-1 (% control)” value [15, 18]?
Answer: 81 % control

Question: What about the “Activity of the protein kinase when treated with compound I-1 (% control)” value [15, 19] of the same molecule?
Answer: 31 % control

Question: And the remaining activity at 0.1 µM [16, 18]?
Answer: 41%

Question: And the remaining activity at 1 µM [16, 19]?
Answer: 8%

Question: What about the remaining activity at 0.1 µM [17, 18] of the same molecule?
Answer: 87%

Question: And the remaining activity at 1 µM [17, 19]?
Answer: 28%

Question: And the IC50 [1]?
Answer: 338 nM

Question: What about the IC50 [2] of the same molecule?
Answer: 111 nM
